Experimental data taken from patent publication US10882818B1, “P-bromoaniline cassic acid ester with antibacterial activity and a method of preparing the same” (ZHUHAI JINAN SELENIUM SOURCE NANOTECHNOLOGY CO., LTD., priority 2020, dated 2021).
Values after ≈ are worked out from the molar mass of the structure shown.

Legend:
Assay type in all cases: cell-based
[1] = test system: multidrug-resistant Pseudomonas aeruginosa MDR-PA 18-174; experiment: Antibacterial activity test, MIC by microbroth dilution; conditions: for Minimum bacteriostatic concentration: MDR-PA 18-174, microbroth dilution, 37° C., 20-22 hours
Description: (§1) The minimal inhibitory concentration (MIC) of the compounds as determined by microbroth dilution method with gentamicin, cefazolin sodium and ceftriaxone sodium as positive control.
(§2) The experimental strains included methicillin-resistant Gram-positive bacteria: methicillin-resistant Staphylococcus aureus MRSA 18-222, 18-575; multiple drug-resistant Gram-negative bacteria: vancomycin-resistant enterococci VRE 18-80, 18-94, multidrug-resistant Pseudomonas aeruginosa MDR-PA 18-1774, 18-202, carbapenem-resistant Acinetobacter baumannii CR-AB 18-183, 18-560. All the experimental strains were donated by Huashan Hospital affiliated to Fudan University (Institute of Antibiotics, Fudan University) and used after routine identification.
(§3) Preparation of MHB medium: 20.0 g MHB medium was added to 1 L distilled water, boiled until completely dissolved, packed in conical bottles and sterilized at 121° C. for 15 min.
(§4) The experimental strain was cultured to the logarithmic growth phase: under aseptic condition, the experimental strain was inoculated into 100 mL MHB medium and incubated in a constant temperature and humidity incubator at 37° C. for 20-22 hours.
(§5) Preparation of storage solution: weighing the sample to be tested, dissolving it with 1% DMSO solution, preparing a storage solution with a concentration of 2560 μg/mL; weighing a positive reference substance, dissolving it with aseptic distilled water, and configuring a storage solution with a concentration of 2560 μg/mL.
(§6) Preparation of bacterial suspension: under aseptic condition, the experimental strains cultured to logarithmic growth phase were adjusted to 0.5 MCF turbidity standard with MHB medium and diluted according to 1:10, and the bacterial suspension with concentration of 10^6 CFU/mL was prepared for standby.
(§7) Dilution of storage solution and inoculation of experimental strain: under aseptic condition, the storage solution was diluted to 256 μg/mL solution; taking a sterile 96-well plate, adding 200 μL MHB medium to the 12th well, and adding 100 μL MHB medium to each well; adding 100 μL of positive control solution to the first well, mixing well, and sucking 100 μL from it and discarding; adding 100 μL of the compound sample solution to the second well, mixing well, and then pipetting 100 μL to the third well; after mixing, pipetting 100 μL to the fourth well, and diluting to the 11th well in this way; finally, 100 μL was pipetted from the 11th well and discarded, the 12th hole was the growth control without drugs. The concentration of the positive reference substance is 128 μg/mL; the concentrations of the sample solution are 128, 64, […], 8, 4, 2, 1, 0.5, 0.25 μg/mL, respectively. Then, 100 μL of the prepared bacterial suspension is added to each well, so that the final concentration of the bacterial liquid in each well is 5×10^5 CFU/mL.
(§8) Incubation: covering the 96-well plate inoculated with the experimental strains, and incubating in a constant temperature and humidity box at 37° C. for 20-22 hours.
In FIGS. 1-6, the twelve wells represent twelve groups, from left to right, positive, 128 μg/mL, 64 μg/mL, 32 μg/mL, 16 μg/mL, 8 μg/mL, 4 μg/mL, 2 μg/mL, 1 μg/mL, […], Negative.

[2] = test system: methicillin-resistant Staphylococcus aureus MRSA 18-575; experiment: as above; conditions: 37° C., 20-22 hours
Description: as §1, §2, §3, §4, §5, §6, §7, §8

[3] = test system: vancomycin-resistant enterococci VRE 18-94; experiment: as above; conditions: for Minimum bacteriostatic concentration: VRE 18-94, microbroth dilution, 37° C., 20-22 hours
Description: as §1, §2, §3, §4, §5, §6, §7, §8

[4] = test system: methicillin-resistant Staphylococcus aureus MRSA 18-222; experiment: as above; conditions: 37° C., 20-22 hours
Description: as §1, §2, §3, §4, §5, §6, §7, §8

[5] = test system: vancomycin-resistant enterococci VRE 18-80; experiment: as above; conditions: 37° C., 20-22 hours
Description: as §1, §2, §3, §4, §5, §6, §7, §8

[6] = test system: carbapenem-resistant Acinetobacter baumannii CR-AB 18-560; experiment: as above; conditions: 37° C., 20-22 hours
Description: as §1, §2, §3, §4, §5, §6, §7, §8

[7] = test system: multidrug-resistant Pseudomonas aeruginosa MDR-PA 18-202; experiment: as above; conditions: 37° C., 20-22 hours
Description: as §1, §2, §3, §4, §5, §6, §7, §8

[8] = test system: carbapenem-resistant Acinetobacter baumannii CR-AB 18-183; experiment: as above; conditions: 37° C., 20-22 hours
Description: as §1, §2, §3, §4, §5, §6, §7, §8

drug-resistant bacteria = experiment: Antibacterial activity test, overall result on the strain panel; conditions: all experimental strains, up to 128 μg/mL
Description: as §1, §2, §3
The experimental strain was cultured to the logarithmic growth phase: under aseptic condition, the experimental strain was inoculated into 100 mL MHB medium and incubated in a constant temperature and humidity incubator at 37° C. for 20-22 hours. […]

Compound	Minimum bacteriostatic concentration [1]	Minimum bacteriostatic concentration [2]	Minimum bacteriostatic concentration [3]	Minimum bacteriostatic concentration [4]	Minimum bacteriostatic concentration [5]	Minimum bacteriostatic concentration [6]	Minimum bacteriostatic concentration [7]	Minimum bacteriostatic concentration [8]	inhibitory effect on drug-resistant bacteria (drug-resistant bacteria)	MIC ([1]; multi-drug resistant Pseudomonas aeruginosa MDR-PA (strain number not given))	MIC ([3]; Enterococcus, vancomycin-resistant enterococci VRE 18-94)
O=C(O)c1cc(O)c2c(c1)C(=O)c1cccc(O)c1C2=O [Cassic acid]	>128 µg/mL	>128 µg/mL	>128 µg/mL	>128 µg/mL	>128 µg/mL	>128 µg/mL	>128 µg/mL	>128 µg/mL	no inhibitory effect	–	–
Cc1nnc(SCC2=C(C(=O)O)N3C(=O)[C@@H](NC(=O)Cn4cnnn4)[C@H]3SC2)s1 [Cefazolin sodium, cefazolin sodium]	8 µg/mL	>128 µg/mL	>128 µg/mL	>128 µg/mL	32 µg/mL	>128 µg/mL	128 µg/mL	>128 µg/mL	–	–	–
CO/N=C(\C(=O)N[C@@H]1C(=O)N2C(C(=O)O)=C(CSc3nc(=O)c(=O)[nH]n3C)CS[C@H]12)c1csc(N)n1 [Ceftriaxone sodium, ceftriaxone sodium]	128 µg/mL	>128 µg/mL	>128 µg/mL	>128 µg/mL	8 µg/mL	>128 µg/mL	16 µg/mL	>128 µg/mL	–	–	–
Nc1ccc(Br)cc1 [P-Bromoaniline, P-bromoaniline]	>128 µg/mL	>128 µg/mL	>128 µg/mL	>128 µg/mL	>128 µg/mL	>128 µg/mL	>128 µg/mL	>128 µg/mL	no inhibitory effect	–	–
O=C(Nc1ccc(Br)cc1)c1cc(O)c2c(c1)C(=O)c1cccc(O)c1C2=O [p-Bromoaniline cassic acid ester, N-(4-bromophenyl)-4,5-dihydroxy-9,10-dioxo-9,10-dihydroanthracene-2-carboxamide]	32 µg/mL	>128 µg/mL	128 µg/mL	>128 µg/mL	>128 µg/mL	>128 µg/mL	>128 µg/mL	>128 µg/mL	–	32 µg/mL (≈ 73 µM)	128 µg/mL (≈ 292 µM)
gentamicin	0.0625 µg/mL	2 µg/mL	>128 µg/mL	128 µg/mL	0.0625 µg/mL	>128 µg/mL	0.0625 µg/mL	>128 µg/mL	–	–	–
